Data on one compound can be found in patent US6350720B2, “Substituted phenyltriazolin(THI)ones and their use as herbicides” (Bayer Aktiengesellschaft, priority 1997, dated 2002).

Take `CCS(=O)(=O)N(C(C)=O)c1cc(-n2nc(C(F)(F)F)n(C)c2=O)c(F)cc1C#N`: the melting point – broadly, the temperature of the solid-liquid transition – stood at 179 °C.
